Laboratory results taken from US20080171070A1, “Polyelectrolyte Multilayer Film, Preparation And Uses Thereof” (priority 2005, published 2008).

What was measured:
macrophages = assay: Confocal laser scanning microscopy of films in contact with cells (film degradation, contact with embedded protein A); type: cell-based, human; conditions: protein A embedded under 20 pairs of (PlGA/PlL) layers
Experimental: Confocal laser scanning microscopy. For the confocal laser scanning microscopy (CLSM) based investigations, the films were imaged in liquid conditions. CLSM observations were carried out with a Zeiss LSM 510 microscope using a ×40/1.4 oil immersion objective and with 0.4 μm z-section intervals. FITC fluorescence was detected after excitation at 488 nm, cutoff dichroic mirror 488 nm, and emission band pass filter 505-530 nm (green). Virtual vertical sections can be visualized, allowing the thickness of the film to be determined.
In previous experiments, the inventors could visualize the pseudopods developing through the multilayer down to the protein A layer.^[19] […] The progressive degradation of the (PlGA/PlL)n film as a function of contact time with the cells is visualized in FIGS. 2a-2c.
The inventors have seen that the film thickness depends upon the d/l ratio of the build-up polyelectrolyte solutions and in particular that it decreases when x increases from 0 up to 50%. On the other hand, for a given number of deposited pairs of layers, the biological activity decreases when x increases. The variations of the biological effects can thus not be attributed to changes of the film thickness with x. The biological effects can rather be explained by a continuous degradation and pseudopod development through the multilayered films^[19] as already found on (PlL/PlGA)n films. […]

human macrophages [1] = conditions: cited from earlier work
[2] = FTIR spectroscopy in transmission mode, amide-I spectra of protein A with polypeptides; type: physicochemical; conditions: protein A with PlL and/or PdL, 1 mg mL^−1 each, D2O, 0.15M NaCl
Experimental: FTIR Spectroscopy in transmission mode. Transmission spectra were measured on an EQUINOX 55 spectrophotometer (Bruker, Wissembourg, France) using a DTGS detector. Solutions were flown into a sample cell holder (SPECAC P/N 20510). Transmission spectra were measured by using CaF2 windows. Single channel spectra from 128 interferograms were calculated between 4000 and 400 cm^−1 with 2 cm^−1 resolution, using Blackman-Harris three-term apodization and Mertz phase correction with the standard Bruker OPUS/IR software (Version 3.0.4). Each sample (aqueous solution of polypeptide or protein A or both) was prepared at a concentration of 1 mg mL^−1 of each component, in a D2O, 0.15M NaCl (purchased from Prolabo) solution.

human macrophages [3] = assay: Stimulation assay: TNF-α production (ELISA) by macrophages seeded on PA-containing polyelectrolyte multilayers; type: cell-based
Source text: Cell Culture. Whole blood samples were purchased at the “Etablissement Français du Sang” (EFS, Strasbourg, France). Peripheral mononuclear blood cells (PBMC) from healthy individuals, seronegative for […] and hepatitis B and C were isolated from buffy coat by Ficoll/Hypaque centrifugation and were washed twice in phosphate-buffered saline without Ca^2+/Mg^2+. Monocytes were isolated from whole-blood and separated by counter-current centrifugal elutriation of the peripheral mononuclear cells.^[40] Purity was measured by flow cytometry staining with fluorochrome antibodies (Becton Dickinson, PharMingen, San Diego, Calif.) to CD3 (T cells), CD19 (B cells), CD14 (monocytes) and CD45 (leukocytes). Monocytes were diluted at 1.5×10^6 cells mL^−1 in AIM lymphocytes SVF free medium with Glutamax, 100 U mL^−1 GM-CSF (PeproTech, Rocky Hill, USA). Culture medium was changed after 3 days of culture, and at day 5 macrophages were washed twice with RPMI at 37° C.
Polyelectrolyte multilayered film preparation. Polyelectrolyte multilayers were always prepared on glass coverslips (CML, France) pretreated for 15 min at 100° C. with 10^−2 M SDS and 0.12 N HCl, and then extensively rinsed with deionised water. Glass coverslips were deposited in 24-well plates (Nunc, Denmark). All the solutions (polyelectrolyte, PA and rinsing) used for the film constructions contained 0.15 M NaCl with a pH adjusted to 7.4. At this pH both polylysine and polyglutamic acid are almost fully charged, be they l or d enantiomers so that they should not form stereocomplexes in solution. The films were constructed with polyelectrolyte (resp. PA) solutions at 1 mg·mL^−1 (resp. 200 μg·mL^−1) of polyelectrolytes (resp. PA). The film construction was performed as follows: First a precursor film constituted by (PlL/PlGA)5-PlL was built. In each deposition step, the surface is brought in contact with the polyelectrolyte solution for 20 mins followed by another contact with the rinsing solution for 5 mins. This rinsing step is repeated 3 times before adsorption of the polyelectrolyte of opposite charge. After the buildup of the precursor film, PA was adsorbed on the positively charged PlL terminating the precursor film during an overnight contact with PA solution. This film was then rinsed and the additional (PL/PGA)n-PL film was built by using PL and PGA solutions containing (x/100) mg·mL^−1 of PdL (resp. PdGA) and (1-x/100) mg·mL^−1 of PlL (resp. PlGA). All the films were then sterilized for 10 mins by ultraviolet light (254 nm). Before use, the architectures were put in contact with 1 mL of RPMI without serum during 24 h. It is possible that when the films are brought in contact with the culture medium, their structure and thickness change, the structure of the multilayers being dependent on many different physico-chemical parameters.^[41-43] However, such changes cannot explain the different biological effects that are observed in this study. […] One can also notice that the films were built at room temperature whereas the experiments with cells were realized at 37° C.
Stimulation assays. Stimulation assays involving polyelectrolyte films were conducted by seeding 5×10^5 cells (macrophages) onto the PA-containing polyelectrolyte multilayers prepared on glass coverslips and placed into the wells of 24-well plates. TNF-α production by cells was measured by ELISA. TNF-α levels were detected by an enzyme immunoassay (Endogen Products, Woburn, Mass.). All experiments were repeated twice and were performed at 37° C.
For multilayer films containing embedded PA, the proteins were always adsorbed on a (PlL/PlGA)5-PlL precursor film in order to keep the adsorption process (in particular the amount of adsorbed proteins) unaffected by the d/l composition of the film. The multilayer with a given d/l composition was then further deposited on top of the (PlL/PlGA)5-PlL-PA architecture and is constituted by n additional pairs of layers. […]

cells = conditions: replacement of PlL by PdL in the film; cited from earlier work

## PA: Staphylococcus aureus protein A, MW=42,000 Da, from Sigma; embedded in the multilayer films as model active ingredient
macrophages
  Contact of macrophages with embedded protein A (CLSM): come into contact with protein A
Human macrophages [1]
  Cytokine expression on PA stimulation: rapid expression of both the pro-inflammatory cytokine TNF-α and the anti-inflammatory cytokine IL-10
[2]
  Effect of polypeptide interaction on secondary structure of protein A (amide-I spectra): do not affect the secondary structure of protein A
Human macrophages [3]; d content between 10 and 20%, all embedding depths up to n=20, after 4 hours of contact
  TNF-α production (biological activity): full activity
Human macrophages [3]; d content between 10 and 20%, embedding depth exceeds 15 pairs of layers, after 4 hours of contact
  TNF-α production (biological activity): reaches its full activity
Human macrophages [3]; d content between 10 and 20%, embedding depth exceeds 15 pairs of layers, initial 3 hours of contact
  TNF-α production (biological response): no biological response
Human macrophages [3]; d content between 10 and 20%, embedding depths up to 5 pairs of layers
  TNF-α production (biological activity), time course: increases continuously in time, the plateau value being reached after 4 hours of contact
Human macrophages [3]; n=0: PA adsorbed on top of the film, direct contact with cells, lasts at least up to 6 hours
  TNF-α production (cellular response): rapid cellular response is observed already after one hour of contact
Human macrophages [3]; x between 30 and 40%, PA embedded under 1 layer pair
  TNF-α production (biological activity): gradually increases after 2 hours of contact
Human macrophages [3]; x between 30 and 40%, embedded under 5 pairs of layers, after 6 hours of contact
  TNF-α production (biological activity): fully active
Human macrophages [3]; x between 30 and 40%, embedded under 5 pairs of layers, first 4 hours
  TNF-α production (biological activity): totally suppressed
Human macrophages [3]; x between 30 and 40%, embedded under 15 pairs of layers or more, first 6 hours of contact
  TNF-α production (biological activity): no longer acts on cells
Human macrophages [3]; x equals 50% or more of d enantiomer, PA embedded under a (PL/PGA/PL) trilayer
  TNF-α production (biological activity): totally suppressed
cells
  Cellular communication with embedded PA: prevents cellular communication with embedded PA
